In PubChem BioAssay (NCI):
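Following 48 hours of exposure in 96-well plates, responses at five concentrations were used to interpolate endpoints linearly. TGI: concentration producing complete growth inhibition.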

Assays:
Experiment in all cases: NCI-60 cell line screen, 48 h
IGROV1 ovarian = system: IGROV1 ovarian
DMS 273 small cell lung = system: DMS 273 small cell lung
SF-539 CNS = system: SF-539 CNS
SK-MEL-5 melanoma = system: SK-MEL-5 melanoma
HOP-62 NSCLC = system: HOP-62 NSCLC
CAKI-1 renal = system: CAKI-1 renal
SNB-75 CNS = system: SNB-75 CNS
HT29 colon = system: HT29 colon
HCT-116 colon = system: HCT-116 colon
MALME-3M melanoma = system: MALME-3M melanoma
SNB-78 CNS = system: SNB-78 CNS
SF-295 CNS = system: SF-295 CNS
SK-MEL-2 melanoma = system: SK-MEL-2 melanoma
HL-60(TB) leukemia = system: HL-60(TB) leukemia
CCRF-CEM leukemia = system: CCRF-CEM leukemia
A498 renal = system: A498 renal
OVCAR-4 ovarian = system: OVCAR-4 ovarian
786-0 renal = system: 786-0 renal
HCC-2998 colon = system: HCC-2998 colon
SK-OV-3 ovarian = system: SK-OV-3 ovarian
RPMI-8226 leukemia = system: RPMI-8226 leukemia
NCI-H23 lung = system: NCI-H23 lung
M14 melanoma = system: M14 melanoma
HCT-15 colon = system: HCT-15 colon
SNB-19 CNS = system: SNB-19 CNS
KM12 colon = system: KM12 colon
RXF 393 renal = system: RXF 393 renal
OVCAR-5 ovarian = system: OVCAR-5 ovarian
LOX IMVI melanoma = system: LOX IMVI melanoma
U251 CNS = system: U251 CNS
M19-MEL melanoma = system: M19-MEL melanoma
UACC-62 melanoma = system: UACC-62 melanoma
MOLT-4 leukemia = system: MOLT-4 leukemia
KM20L2 colon = system: KM20L2 colon
OVCAR-8 ovarian = system: OVCAR-8 ovarian
HOP-18 NSCLC = system: HOP-18 NSCLC
SF-268 CNS = system: SF-268 CNS
HOP-92 NSCLC = system: HOP-92 NSCLC
LXFL 529 NSCLC = system: LXFL 529 NSCLC
TK-10 renal = system: TK-10 renal
UACC-257 melanoma = system: UACC-257 melanoma
UO-31 renal = system: UO-31 renal
A549 NSCLC = system: A549 NSCLC
NCI-H460 lung = system: NCI-H460 lung
SN12C renal = system: SN12C renal
DLD-1 colon = system: DLD-1 colon
COLO 205 colon = system: COLO 205 colon
XF 498 CNS = system: XF 498 CNS
EKVX NSCLC = system: EKVX NSCLC
OVCAR-3 ovarian = system: OVCAR-3 ovarian
DMS 114 small cell lung = system: DMS 114 small cell lung
K-562 leukemia = system: K-562 leukemia
SW-620 colon = system: SW-620 colon
ACHN renal = system: ACHN renal
NCI-H522 lung = system: NCI-H522 lung
NCI-H226 lung = system: NCI-H226 lung
SK-MEL-28 melanoma = system: SK-MEL-28 melanoma

With Nc1ncnc2c1ncn2C1OC(CSCc2ccc(Cl)cc2)C(O)C1O (stereo unspecified) the TGI (IGROV1 ovarian) was > 100 µM, the TGI (DMS 273 small cell lung) was 84.7 µM and the TGI (SF-539 CNS) was > 100 µM. It also gave a TGI (SK-MEL-5 melanoma) of 90.9 µM, a TGI (HOP-62 NSCLC) of 64.3 µM and a TGI (CAKI-1 renal) of 54 µM. The TGI (SNB-75 CNS) was 58.5 µM, the TGI (HT29 colon) was > 100 µM and the TGI (HCT-116 colon) was 61.4 µM. For the same compound, the TGI (MALME-3M melanoma) was > 100 µM, the TGI (SNB-78 CNS) was > 100 µM and the TGI (SF-295 CNS) was > 100 µM. The TGI (SK-MEL-2 melanoma) was 68.7 µM, the TGI (HL-60(TB) leukemia) was 62.2 µM and the TGI (CCRF-CEM leukemia) was > 100 µM. The TGI (A498 renal) was 96 µM, the TGI (OVCAR-4 ovarian) was > 100 µM and the TGI (786-0 renal) was > 100 µM. The TGI (HCC-2998 colon) was > 100 µM, the TGI (SK-OV-3 ovarian) was > 100 µM and the TGI (RPMI-8226 leukemia) was 67.3 µM. The TGI (NCI-H23 lung) was 71.5 µM, the TGI (M14 melanoma) was 36.7 µM and the TGI (HCT-15 colon) was > 100 µM. The TGI (SNB-19 CNS) was > 100 µM, the TGI (KM12 colon) was 77.4 µM and the TGI (RXF 393 renal) was 73.8 µM. For the same compound, the TGI (OVCAR-5 ovarian) was > 100 µM, the TGI (LOX IMVI melanoma) was > 100 µM and the TGI (U251 CNS) was > 100 µM. The TGI (M19-MEL melanoma) was > 100 µM, the TGI (UACC-62 melanoma) was > 100 µM and the TGI (MOLT-4 leukemia) was 46 µM. For the same compound, the TGI (KM20L2 colon) was > 100 µM, the TGI (OVCAR-8 ovarian) was > 100 µM and the TGI (HOP-18 NSCLC) was > 100 µM. The TGI (SF-268 CNS) was > 100 µM, the TGI (HOP-92 NSCLC) was 32.3 µM and the TGI (LXFL 529 NSCLC) was 48.3 µM. The TGI (TK-10 renal) was > 100 µM, the TGI (UACC-257 melanoma) was > 100 µM and the TGI (UO-31 renal) was 56 µM. The TGI (A549 NSCLC) was > 100 µM, the TGI (NCI-H460 lung) was > 100 µM and the TGI (SN12C renal) was > 100 µM. For the same compound, the TGI (DLD-1 colon) was > 100 µM, the TGI (COLO 205 colon) was > 100 µM and the TGI (XF 498 CNS) was 85.9 µM. For the same compound, the TGI (EKVX NSCLC) was > 100 µM, the TGI (OVCAR-3 ovarian) was > 100 µM and the TGI (DMS 114 small cell lung) was 59.7 µM. The TGI (K-562 leukemia) was > 100 µM, the TGI (SW-620 colon) was > 100 µM and the TGI (ACHN renal) was > 100 µM.
With COCN1C(=O)C2CC(/C=C/C(N)=O)=CN2C(=O)c2ccccc21 (stereo unspecified) the TGI (IGROV1 ovarian) was > 100 µM, the TGI (DMS 273 small cell lung) was > 100 µM and the TGI (SF-539 CNS) was > 100 µM. The TGI (SK-MEL-5 melanoma) was > 100 µM, the TGI (HOP-62 NSCLC) was > 100 µM and the TGI (SNB-75 CNS) was > 100 µM. For the same compound, the TGI (HT29 colon) was > 100 µM, the TGI (HCT-116 colon) was > 100 µM and the TGI (SNB-78 CNS) was > 100 µM. For the same compound, the TGI (SF-295 CNS) was > 100 µM, the TGI (HL-60(TB) leukemia) was > 100 µM and the TGI (CCRF-CEM leukemia) was > 100 µM. For the same compound, the TGI (OVCAR-4 ovarian) was > 100 µM, the TGI (786-0 renal) was > 100 µM and the TGI (HCC-2998 colon) was > 100 µM. For the same compound, the TGI (SK-OV-3 ovarian) was > 100 µM, the TGI (RPMI-8226 leukemia) was > 100 µM and the TGI (NCI-H23 lung) was > 100 µM. The TGI (M14 melanoma) was > 100 µM, the TGI (SNB-19 CNS) was > 100 µM and the TGI (KM12 colon) was > 100 µM. The TGI (NCI-H522 lung) was > 100 µM, the TGI (RXF 393 renal) was > 100 µM and the TGI (LOX IMVI melanoma) was > 100 µM. The TGI (U251 CNS) was > 100 µM, the TGI (M19-MEL melanoma) was > 100 µM and the TGI (UACC-62 melanoma) was > 100 µM. For the same compound, the TGI (NCI-H226 lung) was > 100 µM, the TGI (MOLT-4 leukemia) was > 100 µM and the TGI (SK-MEL-28 melanoma) was > 100 µM. For the same compound, the TGI (KM20L2 colon) was > 100 µM, the TGI (OVCAR-8 ovarian) was > 100 µM and the TGI (HOP-18 NSCLC) was > 100 µM. The TGI (SF-268 CNS) was > 100 µM, the TGI (LXFL 529 NSCLC) was > 100 µM and the TGI (TK-10 renal) was > 100 µM. The TGI (A549 NSCLC) was > 100 µM, the TGI (NCI-H460 lung) was > 100 µM and the TGI (SN12C renal) was > 100 µM. The TGI (DLD-1 colon) was > 100 µM, the TGI (COLO 205 colon) was > 100 µM and the TGI (XF 498 CNS) was > 100 µM. The TGI (EKVX NSCLC) was > 100 µM, the TGI (OVCAR-3 ovarian) was > 100 µM and the TGI (DMS 114 small cell lung) was > 100 µM. For the same compound, the TGI (K-562 leukemia) was > 100 µM and the TGI (SW-620 colon) was > 100 µM.
